# Target: T1, Pannexin-1 (rPanx1) (Rattus norvegicus, UniProt P60570)
# T1 construct: gene Panx1; Rattus norvegicus Pannexin-1 cDNA in pRK5 (pRK5-rPanx1)
# Assay: whole-cell patch clamp of HEK-293T cells transfected with rat Panx1
# Type: cell-based
# T1 sequence (P60570 whole entry): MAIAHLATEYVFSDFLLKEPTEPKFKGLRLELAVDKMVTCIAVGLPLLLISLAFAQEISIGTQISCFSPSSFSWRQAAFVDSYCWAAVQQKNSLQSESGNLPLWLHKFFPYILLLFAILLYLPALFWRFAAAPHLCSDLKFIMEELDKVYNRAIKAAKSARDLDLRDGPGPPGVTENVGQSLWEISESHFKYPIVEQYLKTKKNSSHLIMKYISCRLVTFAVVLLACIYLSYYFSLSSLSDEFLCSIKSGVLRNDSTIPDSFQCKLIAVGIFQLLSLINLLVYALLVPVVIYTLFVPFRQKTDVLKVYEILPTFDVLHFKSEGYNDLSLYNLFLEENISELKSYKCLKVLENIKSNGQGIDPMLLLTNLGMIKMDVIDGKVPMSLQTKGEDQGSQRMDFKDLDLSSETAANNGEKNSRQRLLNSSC
row,IC50 [µM],SMILES
1,74.6,CCCN(CCC)S(=O)(=O)c1ccc(C(=O)O)cc1 [probenecid]
2,0.054,"CCCN(CCC)S(=O)(=O)c1ccc(C(O)(C(F)(F)F)C(F)(F)F)cc1 [EG-2184, 4-(1,1,1,3,3,3-hexafluoro-2-hydroxypropan-2-yl)-N,N-dipropylbenzenesulfonamide]"

# From PMC11269731, “Pannexin-1 channel inhibition alleviates opioid withdrawal in rodents by modulating locus coeruleus to spinal cord circuitry” (Nature Communications, 2024)
